Measurements published in BindingDB's records for doi:10.1021/acs.jmedchem.0c00996 (Albany College of Pharmacy and Health Sciences, 2020).
pIC50: −log10 of the molar value.

Molecular target: Retinol-binding protein 4 (Homo sapiens, UniProt P02753)
Assay: Displacement of [3H]-all-trans-retinol from biotinylated human urine derived RBP4 measured after 16 hrs by scintillation proximity assay

Cc1cc(C(=O)O)nc(N2CCC(COc3ccccc3C(F)(F)F)C2)n1 (stereo unspecified)
pIC50: 7.10
